This test has as its system Pyricularia oryzae. In kind it is cell-based. Particulars: 125 ppm, microtiter plate, absorption at 405 nm on the seventh day after inoculation.

From patent publication US20080176744A1 (priority 2005, published 2008) come the findings set out here.

Consider `CCCCCCCCc1c(N)nc(SC)nc1CC` [I-3, 6-ethyl-2-methylsulfanyl-5-octylpyrimidin-4-ylamine], for which the “growth (relative growth of the pathogen)” value is “inhibited completely”.
